Test results: ChEMBL document CHEMBL1201862, “PubChem BioAssay data set” (2004)
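96-well plates; 48 h exposure; 5 concentrations. Endpoints by linear interpolation between flanking doses. Not reached: highest tested concentration assigned. GI50 marks 50% less growth.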 Active and inactive are the calls of the source. No stated cut-off is given here; in the data, active = GI50 up to about 1.1 µM and inactive = higher.

How the values were obtained:
Experiment in all cases: NCI anticancer screen, dose series, 48 h
SK-MEL-28 = system: SK-MEL-28
HT-29 = system: HT-29
HOP-62 = system: HOP-62
OVCAR-4 = system: OVCAR-4
SNB-19 = system: SNB-19
U-251 = system: U-251
UACC-62 = system: UACC-62
NCI-H23 = system: NCI-H23
NCI-H460 = system: NCI-H460
RPMI-8226 = system: RPMI-8226
TK-10 = system: TK-10
SR = system: SR
HCT-116 = system: HCT-116
NCI-H522 = system: NCI-H522
PC-3 = system: PC-3
BT-549 = system: BT-549
NCI/ADR-RES = system: NCI/ADR-RES
SF-539 = system: SF-539
DU-145 = system: DU-145

Measured: GI50

CC(C)COC1Sc2ccccc2S1
inactive: SK-MEL-28 17.4 µM | HT-29 13.1 µM | HOP-62 21.4 µM | OVCAR-4 23.1 µM | SNB-19 18.1 µM | U-251 18.7 µM | UACC-62 4.91 µM | NCI-H23 22.3 µM | NCI-H460 7.85 µM | RPMI-8226 5.45 µM | TK-10 21.5 µM

O=C1N(c2ccccc2)N=C2c3ccncc3C3=NN(c4ccccc4)C(=O)C123 (stereo unspecified)
inactive: SK-MEL-28 > 22 µM | HT-29 > 39.6 µM | HOP-62 > 100 µM | SR 79.6 µM | HCT-116 > 29.7 µM | OVCAR-4 > 63 µM | NCI-H522 > 100 µM | PC-3 2.43 µM | SNB-19 > 100 µM | U-251 > 100 µM | BT-549 > 48.4 µM | UACC-62 5.57 µM | NCI-H23 > 70 µM | NCI-H460 5.32 µM | NCI/ADR-RES > 27.4 µM | SF-539 14.5 µM | TK-10 > 100 µM

c1cc2cc(Cc3ccc4[nH]ccc4c3)ccc2[nH]1
inactive: SK-MEL-28 26.4 µM | HT-29 16.8 µM | HOP-62 15.7 µM | DU-145 22.9 µM | SR 5.78 µM | HCT-116 17.6 µM | OVCAR-4 7.74 µM | NCI-H522 15.6 µM | PC-3 13.1 µM | SNB-19 21.5 µM | U-251 15.4 µM | BT-549 19.7 µM | UACC-62 17.2 µM | NCI-H23 18.6 µM | NCI-H460 15.8 µM | RPMI-8226 > 10 µM | SF-539 16.5 µM | TK-10 22.1 µM

N/N=C1/C(=N/O)CCc2nonc21
inactive: SK-MEL-28 > 100 µM | HT-29 > 100 µM | HOP-62 > 100 µM | DU-145 > 100 µM | SR > 100 µM | HCT-116 > 100 µM | OVCAR-4 > 100 µM | PC-3 > 100 µM | SNB-19 84.1 µM | U-251 > 100 µM | UACC-62 > 100 µM | NCI-H23 > 100 µM | NCI-H460 > 100 µM | RPMI-8226 > 100 µM | NCI/ADR-RES > 100 µM | SF-539 > 100 µM | TK-10 > 100 µM

O=C1/C(=C\c2cccc(Oc3ccccc3)c2)SC(c2ccccc2)N1Cc1ccccc1 (stereo unspecified)
inactive: SK-MEL-28 29.6 µM | HT-29 20.2 µM | HOP-62 29.1 µM | DU-145 34.9 µM | SR 23.9 µM | HCT-116 14.9 µM | OVCAR-4 31.6 µM | NCI-H522 18.2 µM | SNB-19 24.7 µM | U-251 18.4 µM | BT-549 25.2 µM | UACC-62 29.3 µM | NCI-H23 22.7 µM | NCI-H460 33.3 µM | RPMI-8226 24.3 µM | NCI/ADR-RES 20.4 µM | SF-539 18.5 µM | TK-10 32.1 µM

O=C(N/C(=C\c1ccc(/C=C(\NC(=O)c2ccccc2)c2nc3c(O)nc(S)nc3[nH]2)cc1)c1nc2c(O)nc(S)nc2[nH]1)c1ccccc1
inactive: SK-MEL-28 29.3 µM | HT-29 75 µM | HOP-62 > 100 µM | HCT-116 44.8 µM | OVCAR-4 25.9 µM | NCI-H522 14.6 µM | SNB-19 > 100 µM | U-251 > 100 µM | UACC-62 34.3 µM | NCI-H23 55.7 µM | NCI-H460 > 100 µM | RPMI-8226 29.4 µM | SF-539 61.9 µM | TK-10 > 100 µM

CN(C)c1ccc(/C=C/c2ccnc3ccccc23)cc1N
inactive: SK-MEL-28 13 µM | HT-29 4.49 µM | HOP-62 13.8 µM | DU-145 10.4 µM | SR 2.21 µM | OVCAR-4 10.5 µM | PC-3 4.35 µM | SNB-19 14.4 µM | U-251 9.66 µM | UACC-62 12.1 µM | NCI-H23 5.68 µM | NCI-H460 8.24 µM | RPMI-8226 2.52 µM | NCI/ADR-RES 13.1 µM | SF-539 14.7 µM | TK-10 5.16 µM

COC(=O)c1c2c(cc3c1CC1(C3)Cc3cc4c(c(C(=O)OC)c3C1)CCCC4)CCCC2
inactive: HT-29 > 100 µM | HOP-62 > 100 µM | HCT-116 > 100 µM | OVCAR-4 > 100 µM | NCI-H522 > 100 µM | PC-3 3.94 µM | U-251 > 100 µM | UACC-62 > 100 µM | NCI-H23 > 100 µM | RPMI-8226 49.8 µM | NCI/ADR-RES > 100 µM | SF-539 > 100 µM | TK-10 > 100 µM

CC(=O)OCCCOCn1c(Cc2ccccc2)c(C)c(=O)[nH]c1=O
inactive: SK-MEL-28 > 100 µM | HT-29 > 100 µM | HOP-62 > 100 µM | DU-145 > 100 µM | SR > 100 µM | HCT-116 > 100 µM | OVCAR-4 > 100 µM | NCI-H522 > 100 µM | PC-3 > 100 µM | SNB-19 > 100 µM | U-251 > 100 µM | BT-549 > 100 µM | UACC-62 > 100 µM | NCI-H23 > 100 µM | NCI-H460 > 100 µM | RPMI-8226 > 100 µM | SF-539 > 100 µM | TK-10 > 100 µM

O/N=C1/CCCCC1NO (stereo unspecified)
inactive: SK-MEL-28 > 100 µM | HT-29 > 100 µM | HOP-62 > 100 µM | DU-145 > 100 µM | SR > 100 µM | HCT-116 > 100 µM | OVCAR-4 > 100 µM | PC-3 > 100 µM | SNB-19 > 100 µM | U-251 > 100 µM | UACC-62 > 100 µM | NCI-H23 > 100 µM | NCI-H460 > 100 µM | RPMI-8226 > 100 µM | NCI/ADR-RES > 100 µM | SF-539 > 100 µM | TK-10 > 100 µM

C=CCOCn1cc(C)c(=O)[nH]c1=O
inactive: SK-MEL-28 > 100 µM | HT-29 > 100 µM | HOP-62 > 100 µM | DU-145 > 100 µM | SR > 100 µM | HCT-116 > 100 µM | NCI-H522 29.6 µM | PC-3 > 100 µM | SNB-19 > 100 µM | BT-549 > 100 µM | UACC-62 > 100 µM | NCI-H23 > 100 µM | NCI-H460 > 100 µM | RPMI-8226 > 100 µM | SF-539 > 100 µM | TK-10 > 100 µM

O=C(CCl)N1CCN(c2ccccn2)CC1
inactive: SK-MEL-28 20 µM | HT-29 17.7 µM | HOP-62 22.7 µM | DU-145 > 100 µM | SR 34.9 µM | HCT-116 32.3 µM | OVCAR-4 15.6 µM | PC-3 > 100 µM | SNB-19 57.1 µM | U-251 17.9 µM | NCI-H23 19.8 µM | NCI-H460 19.3 µM | RPMI-8226 31.8 µM | NCI/ADR-RES 27.2 µM | TK-10 19.5 µM

NC(Cc1c2ccccc2cc2ccccc12)C(=O)O (stereo unspecified)
inactive: SK-MEL-28 > 100 µM | HT-29 > 100 µM | HOP-62 67.3 µM | DU-145 85.1 µM | SR 68.9 µM | HCT-116 83.9 µM | OVCAR-4 > 100 µM | NCI-H522 > 100 µM | PC-3 > 100 µM | SNB-19 > 100 µM | U-251 > 100 µM | UACC-62 76.9 µM | NCI-H23 > 100 µM | NCI-H460 59.8 µM | NCI/ADR-RES > 100 µM | SF-539 > 100 µM | TK-10 > 100 µM

CC(=O)Nc1cccc(N2C(=O)/C(=C\c3cccc(Oc4ccccc4)c3)SC2c2ccccc2)c1 (stereo unspecified)
inactive: SK-MEL-28 79.1 µM | HT-29 80.7 µM | HOP-62 > 100 µM | DU-145 > 100 µM | SR 17.2 µM | HCT-116 27 µM | OVCAR-4 53.5 µM | NCI-H522 63.5 µM | SNB-19 > 100 µM | U-251 35.5 µM | BT-549 > 100 µM | UACC-62 60.3 µM | NCI-H23 83.2 µM | NCI-H460 > 100 µM | RPMI-8226 30.3 µM | NCI/ADR-RES 60.8 µM | SF-539 38.4 µM | TK-10 97.5 µM

COC(=O)c1ccccc1CC1Cc2c(C)ccc(C)c2C1=O (stereo unspecified)
inactive: SK-MEL-28 48 µM | HT-29 14.9 µM | HOP-62 60.1 µM | DU-145 50.5 µM | HCT-116 16.5 µM | OVCAR-4 25.9 µM | NCI-H522 21.6 µM | PC-3 34.8 µM | SNB-19 37.9 µM | U-251 33.8 µM | BT-549 34.5 µM | UACC-62 28.7 µM | NCI-H23 15.4 µM | NCI-H460 30.2 µM | NCI/ADR-RES 18.3 µM | SF-539 51.2 µM | TK-10 20.5 µM

c1cc2c(cc1NC1=NCCO1)OCO2
inactive: SK-MEL-28 > 100 µM | HT-29 > 100 µM | HOP-62 > 100 µM | DU-145 > 100 µM | SR 64.3 µM | HCT-116 > 100 µM | OVCAR-4 > 100 µM | NCI-H522 > 100 µM | PC-3 > 100 µM | SNB-19 > 100 µM | U-251 > 100 µM | UACC-62 > 100 µM | NCI-H23 > 100 µM | NCI-H460 > 100 µM | RPMI-8226 > 100 µM | NCI/ADR-RES > 100 µM | SF-539 > 100 µM | TK-10 > 100 µM

CNc1cc(OCc2ccccc2)c(OC)cc1C(=O)N1CCC[C@H]1CO
inactive: SK-MEL-28 > 100 µM | HT-29 > 100 µM | HOP-62 > 100 µM | DU-145 > 100 µM | HCT-116 > 100 µM | OVCAR-4 70.1 µM | NCI-H522 73.8 µM | PC-3 > 100 µM | SNB-19 > 100 µM | U-251 > 100 µM | BT-549 > 100 µM | UACC-62 > 100 µM | NCI-H23 > 100 µM | NCI/ADR-RES > 100 µM | SF-539 > 100 µM | TK-10 > 100 µM
